Reference: US20160340647A1, “COMPOSITIONS AND METHODS FOR INDUCING DIFFERENTIATION OF STEM CELLS” (BIODEMAK LLC, priority 2014, published 2016)

Experiments:
[1] = tested on: GSCs obtained from the U87 cell line; assay: Cell differentiation of GSCs (phase contrast morphology, western blot); format: cell-based; conditions: for cell differentiation of GSCs (FIG. 6): treatment 2, two days
Procedure: (§1) Sulindac was obtained from Sigma.
(§2) Imaging and Immunocytochemistry: • Phase contrast pictures were obtained using an AmScope camera attached to a Nikon TMS microscope. Indirect immunocytochemistry (ICC) was performed as described previously. Briefly, cells were mechanically disaggregated and plated on poly-L-Lysine (PLL). For ICC the following markers were used: Ki67 for proliferative cells; nestin for NSC; beta-tubulin III for neurons; GFAP for astrocytes and 01 for oligodendrocytes. Epifluorescence microscopes (Leica and Nikon) were used for pictures, counting and visualization of the immunocytochemistry. The total number of neurons was quantified by counting a minimum of 15 fields per treatment in triplicates or quadruplicates and normalized vs. non-treated cultures.

[2] = tested on: GSCs obtained from the U87 cell line; assay: Cell viability of GSCs after oxidizing agents (CellTiter 96 Aqueous One); conditions: for GSC killing in combination with oxidizing agents (FIG. 7): treatment 2, 250 uM epimer, 200 uM TBHP
RTP801 levels in GSCs = assay: RTP801 levels in GSCs
NSCs [3] = assay: Neuronal differentiation of NSCs (beta-tubulin III immunocytochemistry, number of neurons vs control); format: cell-based, mice; conditions: treatment 1: floating NSCs 24 hours with 500 microMolar sulindac, plated on PLL another 24 hours
Procedure: (§3) NSCs were obtained from the hippocampi of PO BL6 mice and cultured in DMEM/F12 medium (Gibco) containing B27 (Gibco), epidermal growth factor (EGF, 20 ng/ml. Invitrogen) and basic fibroblast growth factor (bFGF 10 ng/ml. Peprotech). To induce cell differentiation, NSC where plated on poli-L-lysine (Sigma) were NSC spontaneously differentiate into neurons, astrocytes and oligodendrocytes as previously described (Lopez-Toledano M A & Shelanski M L (2004) J. Neurosci. 24(23):5439-5444).
as §1, §2

[4] = tested on: RTP801 levels in U87 cells; assay: RTP801 levels in U87 cells; conditions: U87 cells treated 72 hours at the same day of plating
astrocytes = assay: Cell viability of astrocytes after TBHP (CellTiter 96 Aqueous One); format: cell-based, mice; conditions: astrocytes plated seven days, 48 hours 500 μM sulindac
Source text: To obtain a pure culture of astrocytes, NSCs were differentiated in DMEM+10% FBS (both of Gibco) for seven days, trypsinized and re-plated in a new flask with the same medium. Under these circumstances, close to 100% of the cells become astrocytes (GFAP^+ cells).
as §1
(§4) Background absorbance was subtracted from each sample.

NSCs [5] = assay: Cell viability of NSCs after TBHP (CellTiter 96 Aqueous One); format: cell-based, mice; conditions: TBHP two hours
Procedure: as §3, §1, §4

[6] = 3 mM As2O3, 30 mM DCA or 400 nM DOX

## CC(C)Cc1ccc(C(C)C(=O)O)cc1 (centres unmarked) [ibuprofen]
[1]; 400 uM
  cell differentiation of GSCs (FIG. 6): no significant differentiation

## CC1=C(CC(=O)O)c2cc(F)ccc2/C1=C\c1ccc([S@@+](C)[O-])cc1 [sulindac R epimer]
[2]; [6]
  GSC killing in combination with oxidizing agents (FIG. 7): enhanced killing

## CC1=C(CC(=O)O)c2cc(F)ccc2/C1=C\c1ccc([S@+](C)[O-])cc1 [sulindac S-epimer]
[2]; [6]
  GSC killing in combination with oxidizing agents (FIG. 7): enhanced killing

## CC1=C(CC(=O)O)c2cc(F)ccc2/C1=C\c1ccc(S(C)(=O)=O)cc1 [sulindac sulfone]
[1]; 25 uM
  cell differentiation of GSCs (FIG. 6): lower activity

## CC1=C(CC(=O)O)c2cc(F)ccc2/C1=C\c1ccc([S+](C)[O-])cc1 (centres unmarked) [sulindac]
RTP801 levels in GSCs; GSCs at 0+72 (both floating and plated), 0+3 and 0+6
  change of RTP801 levels: increase
RTP801 levels in GSCs; GSCs, sulindac added at the 3rd dpp for 3 days
  change of RTP801 levels: decrease in RTP801
NSCs [3]
  number of neurons (beta-tubulin III+) vs vehicle: significant increase in the number of neurons
[1]; 500 microMolar sulindac
  neuronal differentiation of GSC by Western blot (nestin, DCX, actin): higher neuronal differentiation
[1]; treatment 1: floating GSCs 24 hours with 500 microMolar sulindac, plated on PLL another 24 hours
  cell differentiation of GSCs (morphology) vs vehicle: clear differentiation effect
[1]; 500 uM
  cell differentiation of GSCs (FIG. 6): lower activity
[4]
  change of RTP801 levels: reduction in RTP801 levels
[2]; 48 hours, 500 uM sulindac, TBHP, 3 mM As2O3, 30 mM DCA or 400 nM DOX
  GSC sensitivity to different oxidative agents (FIG. 7): increase GSC sensitivity
[2]; treatment 1, 500 μM sulindac 24 hours, TBHP two hours
  effect on TBHP-induced cell death of floating undifferentiated GSCs: no effect
[2]; treatment 2, 500 μM sulindac, TBHP two hours
  effect on TBHP-induced cell death of plated GSCs: increased TBHP-induced cell death
astrocytes
  effect on TBHP-induced cell death of astrocytes: very similar protection
NSCs [5]; treatment 1, floating NSCs, 500 μM sulindac
  effect on TBHP-induced death of NSCs: protected floating NSCs from TBHP-induced death
NSCs [5]; treatment 2, plated NSCs, 500 μM sulindac 48 hours
  effect on TBHP-induced cell death of NSCs: complete protection against TBHP-induced cell death
